Results from publication PMC11054735, “LDLR-Mediated Targeting and Productive Uptake of siRNA-Peptide Ligand Conjugates In Vitro and In Vivo” (Pharmaceutics, 2024).
Where two headings read alike, the source gives them in different places.

How the values were obtained:
[1] = incubation at 2 mM in freshly collected mouse blood at 37 °C; LC-MS/MS on plasma fractions; peptide described elsewhere; cited from earlier work
Description: Among the family of peptide-based vectors we identified, the VH4127 (cyclo[(D)-Cys-Met-Thz-Arg-Leu-Arg-Gly-Pen]) peptide ligand used in this study was described elsewhere. Briefly, it was obtained by high-throughput screening of phage display peptide libraries on engineered cell lines expressing the mouse and human LDLR, and was further chemically optimized for optimal LDLR-binding affinity and plasma stability. The VH4127 peptide contains three non-natural amino-acids D-Cys, Thz, and Pen (at positions 1, 3, and 8, respectively), and a disulfide bridge between D-Cys and Pen side ...

[2] = target: T1, His-tagged recombinant mouse LDLR (extracellular domain, mLDLR-ECD) (Mus musculus, UniProt P35951); assay: SPR LDLR-binding affinity (multiple-cycle kinetics, equilibrium KD); conditions: SPR Biacore T200, 25 °C, mLDLR on NiHC1000m chip (700–2000 RU), MCK mode, 50 mM HEPES-NaOH pH 7.4 running buffer, analyte 0.6–640 nM or 0.6–40 nM, equilibrium response fit, means ± SD of n = 6 (triplicate analysis of 2 independent experiments), read-out: Affinities SPR (equilibrium dissociation constant, KD)
T1 construct: recombinant mouse LDLR (extracellular domain, mLDLR-ECD); purchased SinoBiological (Beijing, China)
T1 sequence (P35951 22-790 limits assumed): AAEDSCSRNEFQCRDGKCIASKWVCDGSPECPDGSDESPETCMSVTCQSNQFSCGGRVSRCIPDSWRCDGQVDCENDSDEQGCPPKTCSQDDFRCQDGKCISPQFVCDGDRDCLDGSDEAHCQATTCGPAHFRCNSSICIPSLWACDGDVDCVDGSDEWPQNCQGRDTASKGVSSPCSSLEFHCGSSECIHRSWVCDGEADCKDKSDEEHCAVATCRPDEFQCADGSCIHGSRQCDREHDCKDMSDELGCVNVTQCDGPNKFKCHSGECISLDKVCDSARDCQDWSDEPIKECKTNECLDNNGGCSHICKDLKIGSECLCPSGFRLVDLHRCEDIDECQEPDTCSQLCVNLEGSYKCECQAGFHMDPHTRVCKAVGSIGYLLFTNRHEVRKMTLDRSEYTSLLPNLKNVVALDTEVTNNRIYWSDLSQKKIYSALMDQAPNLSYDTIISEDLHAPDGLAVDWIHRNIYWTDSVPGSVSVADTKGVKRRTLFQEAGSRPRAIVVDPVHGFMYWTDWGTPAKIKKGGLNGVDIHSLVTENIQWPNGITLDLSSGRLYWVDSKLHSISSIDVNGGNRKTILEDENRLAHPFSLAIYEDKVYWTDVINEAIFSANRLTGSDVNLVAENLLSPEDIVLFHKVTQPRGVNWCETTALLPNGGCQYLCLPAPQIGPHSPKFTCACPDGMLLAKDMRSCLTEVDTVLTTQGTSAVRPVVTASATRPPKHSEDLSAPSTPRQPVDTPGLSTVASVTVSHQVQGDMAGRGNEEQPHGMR
Protocol: His-tagged recombinant mouse LDLR (extracellular domain, mLDLR-ECD) was purchased from SinoBiological (Beijing, China). SPR measurements were performed at 25 °C using a Biacore T200 apparatus (Cytiva) and 50 mM HEPES-NaOH pH 7.4, 150 mM NaCl, 50 μM EDTA, 0.005% Tween-20 (v/v), 10 mM Imidazole as running buffer. mLDLR was immobilized on a NiHC1000 m sensor chip (Xantec, Dusseldorf, Germany) at a density of around 10–30 fmol/mm^2. A control flowcell without mLDLR was used as reference. The multiple-cycle kinetic (MCK) method was applied to study molecular interactions of peptides and conjugates. Seven to 11 different concentrations of the analyte were prepared by two-fold dilutions in running buffer (0.6–640 nM or 0.6–40 nM) and successively injected over the flowcells during 120 s at 30 μL/min with a dissociation time of 300 s. Blank runs of running buffer were performed in the same conditions and subtracted from sample runs before evaluation. Equilibrium dissociation constants (KD) were calculated by plotting saturation binding curves using the equilibrium response at the plateau of all curves with BiaEvaluation version 2.0 software. All data are the means of six determinations (triplicate analysis of 2 independent experiments).

[3] = tested on: mSOD1 mRNA in Neuro-2a cells; assay: Gene silencing after transfection (DharmaFECT 2) in Neuro-2a cells, RT-qPCR; assay type: cell-based, mouse; conditions: DharmaFECT 2, 30 nM, 24 h at 37 °C
Protocol: Neuro-2a cells were plated in a 96-well plate at 4000 cells/well one day before experiments. According to DharmaFECT general manufacturer’s protocol (Horizon Discovery), cells were transfected with a mix containing the DharmaFECT 2 and 30 nM of tested compound. […] At the end of the incubation period, Neuro-2a cells were washed once with D-PBS before RNA extraction.
(§1) For in vitro free uptake experiments, the total RNA was extracted using the NucleoSpin RNA XS (Macherey Nagel, Hoerdt, France) according to the manufacturer’s recommendations. For transfection experiments the SuperScript™ IV CellsDirect™ cDNA Synthesis kit (Thermo Fisher Scientific) was used according to manufacturer’s recommendations. For in vivo experiments, mouse organs were crushed in 2 mL tubes pre-filled with ceramic mixture in Precellys®Cryolys® Evolution (Bertin, Montigny le Bretonneux, France) with a QIAZOL lysis buffer (Qiagen, Venlo, The Netherlands). A volume of 150 µL of chloroform (Sigma Aldrich) was added to 750 µL of tissue homogenate and a phenol/chloroform separation was performed using centrifugation for 15 min at 6000× g at 4 °C. Aqueous phases were recovered and RNA extraction was performed with the RNeasy 96 QIAcube HT Kit (Qiagen) according to the manufacturer’s recommendations, in a QIACUBE HT instrument (Qiagen). […] For reverse transcription (RT), 500 ng of total RNA were used (except for cells treated with SuperScript™ IV CellsDirect™ cDNA Synthesis), and cDNA synthesis was performed using the High-Capacity RNA-to-cDNA™ kit (Thermo Fisher Scientific) according to the manufacturer’s recommendations.
(§2) Real-time quantitative PCR (RT-qPCR) assays were performed using the CFX96 Touch Real-Time PCR Detection System (Bio-Rad, Hercules, CA, USA). […] The following primers were used: Mm01344233_g1 SOD1 (mouse), Mm02526700_g1 RpL13 (mouse), Mm01352366_m1 SDHA (mouse), Mm00457191_m1 PSMC4 (mouse). RpL13, SDHA, or PSMC4 served as internal controls for sample normalization, and the comparative cycle threshold method (2−ΔΔCt) was used for data quantification. Finally, gene expression ratios (compared to control samples) were determined.
(A) Transfection of unconjugated siSOD1 and siSOD1-peptide conjugates on Neuro-2a cells at 30 nM. […] (B) Free uptake experiments of unconjugated siSOD1 and siSOD1-peptide conjugates on Neuro-2a cells at 1 µM. After 3 days at 37 °C, mSOD1 mRNA levels were quantified using RT-qPCR. Each dot corresponds to the mean value obtained in independent experiments. (C) Free uptake experiments of siSOD1-31, -35, -36, -37 conjugates with their respective negative controls siSOD1-31Sc, -35Sc, -36Sc, -37Sc on Neuro-2a cells at 1 µM.

[4] = tested on: mSOD1 mRNA in Neuro-2a cells; assay: Gene silencing by free uptake in Neuro-2a cells, RT-qPCR; assay type: cell-based, mouse; conditions: 1 µM, 3 days at 37 °C, DMEM with 1% fetal calf serum
Protocol: Neuro-2a cells were plated in a 48-well plate at 13,000 cells/well the day before the test. All siRNA and conjugates were incubated during 3 days at 37 °C with 1 µM of conjugate prepared in DMEM supplemented with 1% fetal calf serum. At the end of the incubation period, cells were washed once with D-PBS before RNA extraction. For in vitro free uptake experiments, the total RNA was extracted using the NucleoSpin RNA XS (Macherey Nagel, Hoerdt, France) according to the manufacturer’s recommendations. For transfection experiments the SuperScript™ IV CellsDirect™ cDNA Synthesis kit (Thermo Fisher Scientific) was used according to manufacturer’s recommendations. […] Aqueous phases were recovered and RNA extraction was performed with the RNeasy 96 QIAcube HT Kit (Qiagen) according to the manufacturer’s recommendations, in a QIACUBE HT instrument (Qiagen). […] For reverse transcription (RT), 500 ng of total RNA were used (except for cells treated with SuperScript™ IV CellsDirect™ cDNA Synthesis), and cDNA synthesis was performed using the High-Capacity RNA-to-cDNA™ kit (Thermo Fisher Scientific) according to the manufacturer’s recommendations. Real-time quantitative PCR (RT-qPCR) assays were performed using the CFX96 Touch Real-Time PCR Detection System (Bio-Rad, Hercules, CA, USA). […] Finally, gene expression ratios (compared to control samples) were determined. […] (A) Transfection of unconjugated siSOD1 and siSOD1-peptide conjugates on Neuro-2a cells at 30 nM. […] (B) Free uptake experiments of unconjugated siSOD1 and siSOD1-peptide conjugates on Neuro-2a cells at 1 µM. […] Each dot corresponds to the mean value obtained in independent experiments.

SOD1 mRNA in liver = assay: In vivo gene silencing in mouse liver after i.v. administration, RT-qPCR; conditions: C57Bl/6JRj mice, single i.v. bolus 1 µmole/kg (15 mg/kg siRNA) in PBS, liver 7 days post-administration
Protocol: Wild-type male C57Bl/6JRj mice (Janvier Labs, Le Genest-Saint-Isle, France) aged 10–12 weeks old were used. All animal studies were approved by the ethics committee for animal experimentation (CEEA-N°14) and approved by French ministry of agriculture (MRC). […] Intravenous (i.v., lateral tail vein) administrations (15 mg/kg) were performed on conscious restrained mice. Following a 7-day observational period, animals were euthanized by an intraperitoneal overdose of Ketamin-Xylasine mixture (Sigma Aldrich, Saint-Quentin-Fallavier, France), and tissue samples were collected after extensive blood wash-out by intracardiac perfusion (Left ventricle, Flow rate 8 mL/min) of a saline solution (0.9%) and immediately stored at −20 °C in 10 vol NucleoProtect RNA stabilization reagent (Macherey-Nagel, Düren, Germany) before further RNA extraction and target mRNA quantification.
as §1, §2
The in vivo targeting and functional uptake potential of LDLR-binding siSOD1-peptide conjugates was evaluated as follows.
Mice were injected (i.v. lateral tail vein) with unconjugated siRNAs and siSOD1-peptide conjugates in PBS (15 mg/kg). Seven days post-administration mice were euthanized and perfused with saline solution (0.9% NaCl). Organs were collected to assess the SOD1 mRNA levels using RT-qPCR.

CCC(=O)N[C@@H]1CSSC(C)(C)[C@@H](C(N)=O)NC(=O)CNC(=O)[C@H](CCCNC(=N)N)NC(=O)[C@H](CC(C)C)NC(=O)[C@H](CCCNC(=N)N)NC(=O)[C@@H]2CSCN2C(=O)[C@H](CCSC)NC1=O [VH4127, cyclo[(D)-Cys-Met-Thz-Arg-Leu-Arg-Gly-Pen]]
In vitro plasma stability, estimated half-life [1]: 4.27 h

Pr-K(N3)-PEG2-[cMThzRLRGPen]c-NH2 (disulfide) [siSOD1-31]
Kd ([2]; SD): 104 ± 11.7 nM
Kd [2]: 87 to 104 nM
In Vitro KD on N2A, Transfection (mSOD1 mRNA knock-down) [3]: >90%
In Vitro KD on N2A, Free Uptake (mSOD1 mRNA knock-down) [4]: 55%
In Vivo KD, Liver (SOD1 mRNA knock-down) (SOD1 mRNA in liver): 40%

Pr-K(N3)-PEG2-[cMThzRLRGPen]c-NH2 (disulfide) [siSOD1-33]
Kd ([2]; SD): 12.8 ± 1.9 nM
In Vitro KD on N2A, Transfection (mSOD1 mRNA knock-down) [3]: >90%
In Vivo KD, Liver (SOD1 mRNA knock-down) (SOD1 mRNA in liver): ~50%

Pr-K(N3)-PEG2-[cMThzRLRGPen]c-NH2 (disulfide) [siSOD1-36]
Kd ([2]; SD): 25 ± 1.2 nM
In Vitro KD on N2A, Transfection (mSOD1 mRNA knock-down) [3]: >90%
In Vitro KD on N2A, Free Uptake (mSOD1 mRNA knock-down) [4]: 60%
In Vivo KD, Liver (SOD1 mRNA knock-down) (SOD1 mRNA in liver): 30%

Pr-K(N3)-PEG2-[cMThzRLRGPen]c-NH2 (disulfide) [siSOD1-37]
Kd ([2]; SD): 31.9 ± 1.6 nM
In Vitro KD on N2A, Transfection (mSOD1 mRNA knock-down) [3]: >90%
In Vitro KD on N2A, Free Uptake (mSOD1 mRNA knock-down) [4]: 60%
In Vivo KD, Liver (SOD1 mRNA knock-down) (SOD1 mRNA in liver): 35%

Pr-[cMThzRLRGPenG]c-OH (disulfide) [siSOD1-35]
Kd ([2]; SD): 11.3 ± 2.9 nM
In Vitro KD on N2A, Transfection (mSOD1 mRNA knock-down) [3]: >90%
In Vitro KD on N2A, Free Uptake (mSOD1 mRNA knock-down) [4]: improved KD effect compared to its non-binding control siSOD1-35sc
In Vivo KD, Liver (SOD1 mRNA knock-down) (SOD1 mRNA in liver): 50%

Pr-[cMThzRLRGPen]c-PEG2-K(N3)-NH2 (disulfide) [siSOD1-32]
Kd ([2]; SD): 86.8 ± 17.1 nM
Kd [2]: 87 to 104 nM
In Vitro KD on N2A, Transfection (mSOD1 mRNA knock-down) [3]: 40%
In Vitro KD on N2A, Free Uptake (mSOD1 mRNA knock-down) [4]: did not show improvement compared to the unconjugated 5′P-siSOD1
In Vivo KD, Liver (SOD1 mRNA knock-down) (SOD1 mRNA in liver): ~ 20%
